Results: patent US6630127B2, “Method for assessing cortical response to blue light” (The McLean Hospital Corporation, priority 2000, dated 2003)

Columns and labels:
[1] = tested on: human primary visual cortex (V1); assay: fMRI BOLD study with alternating red and blue photic stimulation after oral d-amphetamine or placebo
visual cortex = conditions: photic stimulation paradigm, humans; cited from earlier work

| Compound | Mean % BOLD signal change (all trials), V1, blue light stimulation ([1]; blue light 470 nm, 0.12 lux, 8 Hz, right and left V1 1x4 ROI, 2.5 mg d-amphetamine sulfate oral, N = 13) [%] | mean BOLD signal change higher in drug than in placebo condition, blue light ([1]; blue light, drug 2.04% versus placebo 1.60%, all trials) [%] | effect of time following drug administration on BOLD signal response to blue light ([1]; linear regression, 5 trials from about 18 min post-drug, Z=-2.471, P=0.013, decreasing BOLD signal over time) | effect of time following drug administration on BOLD signal response to red light ([1]; linear regression, 5 trials, Z=-0.470, P=0.638) | overall BOLD response to red and blue light ([1]; low dose (2.5 mg) d-amphetamine versus placebo) | Mean % BOLD signal change (all trials), V1, red light stimulation ([1]; red light 660 nm, 0.12 lux, 8 Hz, right and left V1 1x4 ROI, 2.5 mg d-amphetamine sulfate oral, N = 13) [%] | mean BOLD signal change higher in drug than in placebo condition, red light ([1]; red light, drug 1.24% versus placebo 0.95%, all trials) [%] | effect on BOLD signal / photic activation in visual cortex (visual cortex) |
| --- | --- | --- | --- | --- | --- | --- | --- | --- |
| C[C@H](N)Cc1ccccc1.C[C@H](N)Cc1ccccc1.O=S(=O)(O)O [d-amphetamine, d-amphetamine sulfate] | 2.04 | 28 | significant effect of time | no significant effect of drug over time | enhanced | 1.24 | 30 |  |
| CCO [ethanol] |  |  |  |  |  |  |  | inhibits photic activation |
